The subject of experiment [1] is P2X receptors in oligodendrocytes. In words: Whole-cell patch-clamp recordings in cultured oligodendrocytes. Format: cell-based, rat. To be noted: for induction of input current by agonist: agonist 100 μM; for pEC50: cultured oligodendrocytes, whole-cell patch-clamp, read-out: EC50 of amplitude of currents generated by agonist. Here is the method:
(§1) The cell cultures were carried out from the optic nerve of the perinatal rat (P12) following established protocols, which were adapted and introduced into the laboratory according to a recent description (Matute et al, 1997, Proc. Natl. Acad. Sci. USA 94, 8830-8835).
The electrophysiological recordings were carried out in 2 to 5 day cultures, and according to the guidelines indicated in previous works (Patneau et al 1994, Neuron 12: 357-371). The cells were recorded in a chamber which allowed the composition of the extracellular medium to vary by means of a constant flow (0.5-1 mL/min). The recording electrodes were glass capillaries which contained specific solutions compatible with the cytoplasm ion concentrations. The study of the responses mediated by the purinergic receptors was carried out using the “whole-cell patch-clamp” technique, measuring the currents generated by the external application of selective agonists and antagonists of the aforementioned receptors.
For orientation: In patch-clamp work, channel activity is measured electrically.

For experiment [2] the test system is unchanged. Put plainly: Cytosolic calcium levels (Fura-2) in oligodendrocyte cultures. To be noted: for promotion of the increase of [Ca2+]i generated by ATP: propofol 60 μM. It counts as cell-based, rat. On the procedure:
as §1
The concentration of cytosol calcium was determined by the method of Grynkiewikcz et al (1985; J. Biol. Chem. 260, 3440-3450). The oligodendrocytes were loaded with […] of Fura-2/AM, and they were then washed and studied in a Zeiss inverted microscope equipped with a monochromator, 40× immersion objective, an Orca high resolution digital camera, and AquaCosmos software (Hamamatsu Photonics). The changes in cytosol calcium levels in response to agonists and antagonists, in the presence and absence of extracellular calcium, were studied. The calibration was performed at the end of the studies by means of the successive application of ionomycin and EGTA, and the calcium concentration was estimated using the measurement of the 340/380 nm ratio.

For a further experiment, the system named is oligodendrocytes. Put plainly: Oligodendroglial death in culture. It counts as cell-based, rat. To be noted: for toxicity of purinergic agonists for oligodendrocytes: culture. Here is the method: Death is calcium dependent, since its elimination from the culture media leads to it not being caused. […] The cell cultures were carried out from the optic nerve of the perinatal rat (P12) following established protocols, which were adapted and introduced into the laboratory according to a recent description (Matute et al, 1997, Proc. Natl. Acad. Sci. USA 94, 8830-8835).

The next experiment deals with optic nerve. Put plainly: Infusion of agonists over the optic nerve in vivo (osmotic pumps). Also on record: species or system rabbit. To be noted: infused 3 days by osmotic pumps, examined 7 days after start. On the procedure: The experiments on the optic nerve were carried out in rabbits (New Zealand White) which, due to their size, enable better manipulation in experimental surgery. The procedure used was that described previously (Matute, 1998, Proc. Natl. Acad. Sci. 95, 10229-10234). The purinergic agonists were applied using osmotic micropumps which released small quantities of solute for a determined time. Later, the effect of this application on the nerve was evaluated by means of a panel of oligodendrocyte markers and their progenitors, myelin, axonal integrity, astrogliosis y microgliosis.
Next, the ATP-γ-S and BzATP agonists were infused over the optic nerve using osmotic pumps which released very small quantities of solute for 3 days. […] Also, this zone had intense gliosis, lack of myelin and axonal damage (FIG. 6).

For experiment [3], the system named is oligodendrocytes of isolated optic nerve. In words: Isolated optic nerve perfusion, oligodendrocyte damage in situ. Also on record: species or system rat. Here is the method: Next, they were incubated with purinergic agonists and antagonists for different times. Later, the nerves were perfused for 1 to 24 hours with normal aCSF saturated with oxygen. After this time passed the damage was evaluated histologically as we have described in vivo (Matute, 1998, Proc. Natl. Acad. Sci. USA 95: 10229-10234), and the biochemical changes which are underlying to this damage were analysed.
To determine if ATP is toxic to the oligodendrocytes in a preparation of nerve tissue without dissociating, entire optic nerves isolated from adult rats were perfused with artificial cerebrospinal fluid with ATP (100 μM) for 3 h. […] The damaged cells are located in the longitudinal axis of the nerve and make up part of interfascicular oligodendrocyte rows.

A further experiment has as its target T1, P2X1 (Homo sapiens, UniProt P51575).
T1 sequence (P51575 1-399): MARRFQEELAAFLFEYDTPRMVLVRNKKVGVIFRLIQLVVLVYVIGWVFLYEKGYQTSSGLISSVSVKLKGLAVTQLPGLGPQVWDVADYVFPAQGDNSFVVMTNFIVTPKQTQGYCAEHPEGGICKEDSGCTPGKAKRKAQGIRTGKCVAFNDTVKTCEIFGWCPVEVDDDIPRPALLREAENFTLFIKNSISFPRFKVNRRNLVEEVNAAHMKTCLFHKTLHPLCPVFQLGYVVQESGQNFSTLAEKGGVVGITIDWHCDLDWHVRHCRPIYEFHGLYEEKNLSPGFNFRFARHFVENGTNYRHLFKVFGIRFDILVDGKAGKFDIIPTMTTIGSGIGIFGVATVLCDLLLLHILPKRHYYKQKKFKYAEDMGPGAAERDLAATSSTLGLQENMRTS
To be noted: P2X1 subtype; read-out: IC50 in relation to P2X1; cited from earlier work.

The next experiment has as its target T2, P2X3 (Homo sapiens, UniProt P56373).
T2 sequence (P56373 1-397): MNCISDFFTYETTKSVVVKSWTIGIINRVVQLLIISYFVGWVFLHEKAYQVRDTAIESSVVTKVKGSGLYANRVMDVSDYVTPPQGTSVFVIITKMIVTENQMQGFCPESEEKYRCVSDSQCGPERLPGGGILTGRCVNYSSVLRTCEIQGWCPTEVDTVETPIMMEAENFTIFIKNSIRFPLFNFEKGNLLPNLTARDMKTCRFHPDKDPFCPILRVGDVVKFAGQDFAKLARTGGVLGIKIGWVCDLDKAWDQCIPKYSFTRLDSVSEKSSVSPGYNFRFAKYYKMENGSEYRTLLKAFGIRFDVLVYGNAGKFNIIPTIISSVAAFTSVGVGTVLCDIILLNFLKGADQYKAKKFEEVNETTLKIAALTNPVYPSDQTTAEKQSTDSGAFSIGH
To be noted: P2X3 subtype; read-out: IC50 in relation to P2X3; cited from earlier work.

A further experiment deals with T3, P2X4 (Homo sapiens, UniProt Q99571).
T3 sequence (Q99571 1-388): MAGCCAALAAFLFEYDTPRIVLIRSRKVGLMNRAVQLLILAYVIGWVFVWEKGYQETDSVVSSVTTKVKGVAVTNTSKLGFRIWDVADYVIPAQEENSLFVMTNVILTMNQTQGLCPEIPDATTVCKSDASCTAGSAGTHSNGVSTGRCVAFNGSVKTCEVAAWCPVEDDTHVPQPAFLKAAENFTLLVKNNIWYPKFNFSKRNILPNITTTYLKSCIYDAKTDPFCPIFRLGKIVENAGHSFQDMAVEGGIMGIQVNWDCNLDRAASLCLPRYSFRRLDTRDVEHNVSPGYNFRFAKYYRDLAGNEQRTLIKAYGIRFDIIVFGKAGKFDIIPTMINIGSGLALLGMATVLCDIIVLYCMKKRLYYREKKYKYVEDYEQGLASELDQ
To be noted: P2X4 subtype; read-out: IC50 in relation to P2X4; cited from earlier work.

In a further experiment the test system is EAE in Lewis rats. In words: Acute EAE induced with basic myelin protein. It counts as in vivo, rat. To be noted: 7 to 14 days post-injection.
The next experiment has as its system EAE in DA rats. In words: Chronic-recurrent-remittent EAE model. Format: in vivo, rat. To be noted: o-ATP 2.5 mg/kg every 12 h, from maximum intensity of symptoms. Here is the method:
Later, the efficacy of o-ATP in improving the symptoms of EAE was evaluated in a chronic-recurrent-remittent model. For this, DA rats were immunised with syngeneic spinal cord, the appearance of severe neurological deficits being observed 7-9 days post-injection, and which reached their first peak around 11 days.

The next experiment deals with P2X7 receptors. In words: P2X7 receptor levels in lumbar-sacral spinal cord of EAE animals (Western blot). Format: in vivo, rat. To be noted: EAE animals treated with o-ATP; untreated EAE reduced by half. On the technique in general: In western blotting, separated proteins are transferred to a membrane and probed.

pEC50, pIC50: −log10 of the molar value. Structures can show the parent of a compound that is named as a salt. Some results are limits rather than exact numbers.

By pEC50 is commonly meant −log10 of the EC50, conventionally taken in molar units. With 2′,3′-O-(4-benzoyl-4-benzoyl) [BzATP], in [1], the “induction of input current by agonist” value is given as “induced similar responses” and the pEC50 is 3.28. Also, the “entrance of Ca2+ into oligodendrocytes” value in experiment [2] (Bz-ATP 0.01-1 mM) is on record as “activates the entrance of Ca^2+ into oligodendrocytes in a dose dependent way”. For the same molecule, the “toxicity of purinergic agonists for oligodendrocytes” value (“toxicity of purinergic agonists” for short) in the experiment with oligodendrocytes is listed as “toxicity similar to ATP”. For the same molecule, in the experiment on optic nerve, the “histological examination of optic nerve after agonist infusion” value is “tissue damage”.

Take `Nc1ncnc2c1ncn2[C@@H]1O[C@H](COP(=O)(O)OP(=O)(O)OP(O)(O)=S)[C@@H](O)[C@H]1O` [ATP-γ-S]: the “toxicity of purinergic agonists” value in the experiment with oligodendrocytes is “toxic”. The “histological examination of optic nerve after agonist infusion” value in the experiment on optic nerve is listed as “tissue damage”.

`Nc1ncnc2c1ncn2[C@@H]1O[C@H](COP(=O)(O)OP(=O)(O)OP(=O)(O)O)[C@@H](O)[C@H]1O` [ATP]: the “oligodendrocytes showing non-desensitising input current” value in [1] (ATP 1 mM, n=47) is reported as 77.3%±7.9. Moreover, the pEC50 in experiment [1] was 2.06. Moreover, the “cytosol [Ca2+]i after agonist” value in experiment [2] (ATP 10 μM, basal 250±65 nM) was found to be 1200 ± 468 nM. For the same molecule, the death of oligodendrocytes in the experiment on oligodendrocytes (ATP 0.01-1 mM, all concentrations tested) is 15-27%. The “increase in number of cells with nuclear condensation vs control nerves” value in experiment [3] (ATP 100 μM for 3 h, isolated adult rat optic nerve) is recorded as over 3 times.

For `[Cu+2]` [Cu^2+], the “effect on ATP currents” value in experiment [1] (Cu2+ 1 mM) is on record as “reduces ATP currents”.

Broadly, the pIC50 is the IC50 on a negative log10 scale, so that one unit is a factor of ten. As for `O=c1[nH]cnc2c1ncn2C1OC(COP(=O)(O)OP(=O)(O)OP(=O)(O)OP(=O)(O)OP(=O)(O)OCC2OC(n3cnc4c(=O)[nH]cnc43)C(O)C2O)C(O)C1O` (centres unmarked) [Ip5I, pentapotassium salt of P^1,P^5-Diinosine-5-pentaphosphate], the pIC50 at P2X1 is 8.52; at P2X3, 5.52.

As to `O=C(Nc1cccc(C(=O)Nc2ccc(S(=O)(=O)O)c3cc(S(=O)(=O)O)cc(S(=O)(=O)O)c23)c1)Nc1cccc(C(=O)Nc2ccc(S(=O)(=O)O)c3cc(S(=O)(=O)O)cc(S(=O)(=O)O)c23)c1` [NF023, hexasodium salt of 8,8′-[carbonylbis[imino-3,1-phenylenecarbonylimino]bis-1,3,5-naphthalenetrisulfonic acid]], the pIC50 on P2X3 was 4.54.

As for `O=C(Nc1ccc(C(=O)Nc2ccc(C(=O)Nc3ccc(S(=O)(=O)O)c4cc(S(=O)(=O)O)cc(S(=O)(=O)O)c34)cc2)cc1)Nc1ccc(C(=O)Nc2ccc(C(=O)Nc3ccc(S(=O)(=O)O)c4cc(S(=O)(=O)O)cc(S(=O)(=O)O)c34)cc2)cc1` [NF279], the pIC50 was 7.70 on P2X1 and under 4.52 on P2X4.

Consider `Cc1nc(N=Nc2ccc(S(=O)(=O)O)cc2S(=O)(=O)O)c(COP(=O)(O)O)c(C=O)c1O` [PPADS, tetrasodium salt of pyridoxalphosphate-6-azophenyl-2′,4′-disulfonic acid], for which the “effect on currents induced by ATP” value in experiment [1] (PPADS 100 μM) was “completely blocked”. Also, in [2] (PPADS), the “effect on Ca2+ entrance induced by Bz-ATP” value is “blocked”. For the same molecule, the “effect on [Ca2+]i response to ATP” value in [2] (PPADS 50 μM, ATP 10 μM) is “repressed”. The “effect on ATP-induced oligodendrocyte death” value in the experiment on oligodendrocytes (PPADS 50 μM) is listed as “inhibited”. The “effect on ATP-induced oligodendrocyte death in isolated optic nerve” value in experiment [3] (PPADS 10 μM with ATP) was “prevents the death of the oligodendrocytes”. In addition, the “effect on symptoms and course of acute EAE” value in the experiment on EAE in Lewis rats (PPADS 30 mg/kg two times per day) is “did not improve the symptoms or the course of the disease”.

For the molecule `Nc1ncnc2c1ncn2[C@@H](C=O)O[C@@H](C=O)COP(=O)(O)OP(=O)(O)OP(=O)(O)O` [o-ATP, sodium salt of Adenosine 5-triphosphate, oxidised with periodate], the “effect on ATP currents” value in [1] (o-ATP, concentration not given) was “partially blocks”. Further, the “reduction of the increase in [Ca2+]i induced by Bz-ATP” value in [2] (o-ATP 1 mM) worked out at 63±8. Moreover, the “effect on oligodendroglial death due to ATP” value in the experiment with oligodendrocytes (o-ATP (FIG. 4)) is given as “can be prevented”. The “effect on symptoms of acute EAE” value in the experiment with EAE in Lewis rats (o-ATP 1 and 5 mg/kg every 12 h) is recorded as “reduced or prevented the appearance of symptoms”. Also, the “effect on symptoms of chronic-recurrent-remittent EAE” value in the experiment with EAE in DA rats was “reduced the symptoms and also eliminated those common to the chronic phase”. The “levels of P2X7 receptors in lumbar-sacral spinal cord” value in the experiment with P2X7 receptors is reported as “returned to those of the controls”.

`CC(C)c1cccc(C(C)C)c1O` [propofol]: the “effect on ATP currents” value in [1] (propofol 60 μM) was “does not alter these currents”. Besides, the figures for the “promotion of the increase of [Ca2+]i generated by ATP” value in [2] (0.1 mM ATP) and in [2] (1 mM ATP) were 60%±22 and 77%±34, respectively.

Take `Nc1ncnc2c1ncn2[C@@H]1O[C@H](COP(=O)(O)CP(=O)(O)OP(=O)(O)O)[C@@H](O)[C@H]1O` [α,β-Me-ATP, α,β-methylene-ATP]: the “induction of input current by agonist” value in [1] is given as “did not generate currents”. For the same molecule, the “toxicity of purinergic agonists” value with oligodendrocytes is listed as “toxic”.

These data come from patent US20070099863A1, “Compounds for the treatment of demyelinating and autoimmune diseases” (priority 2003, published 2007).
